“Also recorded” adds a separate entry of the source.
Legend:
[1] = Cystic fibrosis trial: sentinel Pk, plasma tobramycin levels (DDI); type: in vivo, human
SARS-CoV-2 = assay: Hamster model of SARS-CoV-2 disease transmission and progression, viral load (PFU); type: in vivo, Golden Syrian Hamsters
Description: 24 hours prior to nasal inoculation with SARS-CoV-2, Golden Syrian Hamsters were dosed with ebselen, saline and remdesivir at 15 mg/kg. Samples were taken from nares (PFU/swab) on days 1, 2 and 3, and from the nasal turbinates and cranial & caudal lung tissue (PFU/100 mg) on day 7.

Vero E6 cells = assay: Cytotoxicity / cell viability in Vero E6 cells; type: cell-based
[2] = Meniere's Disease clinical study: auditory function; type: in vivo, human; settings: exceeds reported improvements with corticosteroid treatment
From the text: We have studied the efficacy of ebselen in a number of indications including the treatment of Meniere's Disease, and in the treatment of ototoxicity in cystic fibrosis (CF) patients. Ebselen has an anti-inflammatory mechanism of action that is distinct from that of a classic corticosteroid immunosuppressive agent which can be beneficial in the treatment of respiratory viral infections. […] In addition, our Phase 2b study in cystic fibrosis (CF) patients with Pseudomonas is continuing without any safety issues. […] Our results and analysis in these other clinical studies supports the use of ebselen in the subject methods of treating or preventing conditions associated with respiratory viral infections described herein.
The anti-inflammatory mechanism of action of ebselen is unique and distinct over that of a classic corticosteroid immunosuppressive agent. […] In addition, our Phase 2b study in CF patients with Pseudomonas is continuing without any safety issues.

[3] = Study 6.4: ebselen in moderate COVID-19; type: in vivo, human; settings: 400 or 800 mg BID for 7 days
[4] = mice; Gu et al.; cited from earlier work
[5] = target: COVID-19 virus main protease (M^pro) (Severe acute respiratory syndrome coronavirus 2, UniProt P0DTD1); settings: Jin et al.; cited from earlier work
[6] = Study 6.5: ebselen in moderate to severe COVID-19 at high risk of respiratory failure; type: in vivo, human; settings: 400 to 600 mg BID up to 21 to 28 days
[7] = Cystic fibrosis trial: clinical chemistry, nephrotoxicity, tolerability; type: in vivo, human; settings: for Serum Creatinine Mean (SD): baseline 0.77 (0.24); for Blood Urea Nitrogen Mean (SD): baseline 12.81 (4.73); for Bilirubin (Total) / Creatinine / Magnesium / Phosphorus / Albumin / Potassium / Uric Acid / Total Protein / Calcium / BUN / AST/SGOT / ALT/SGPT / GGT / Bicarbonate / Triglyceride / Alkaline Phosphatase / Glucose / Chloride / Total Cholesterol / Sodium / LDH: ITT Population; for Bilirubin (Total): Screening/Baseline 0.46; for Creatinine: Screening/Baseline 0.77; for Magnesium: Screening/Baseline 2.11; for Phosphorus: Screening/Baseline 3.62; for Albumin: Screening/Baseline 3.80; for Potassium: Screening/Baseline 4.33; for Uric Acid: Screening/Baseline 5.63; for Total Protein: Screening/Baseline 7.17; for Calcium: Screening/Baseline 8.84; for BUN: Screening/Baseline 12.81; for AST/SGOT: Screening/Baseline 16.86; for ALT/SGPT: Screening/Baseline 17.05; for GGT: Screening/Baseline 22; for Bicarbonate: Screening/Baseline 26.05; for Triglyceride: Screening/Baseline 78.33; for Alkaline Phosphatase: Screening/Baseline 97.71; for Glucose: Screening/Baseline 101.24; for Chloride: Screening/Baseline 101.95; for Total Cholesterol: Screening/Baseline 126.43; for Sodium: Screening/Baseline 135.71; for LDH: Screening/Baseline 161.48
Description: Thirty of 80 participants were enrolled starting in January 2019. They were Cystic fibrosis patients ages 18-70 that had acute pulmonary exacerbation or acute respiratory infections that required treatment with IV tobramycin 10 mg/kg/d for 10-21 days. They were randomized into four groups (1:1:1:1) (0, 200, 400, or 600 BID) and treated for 21 days. There were four follow-up visits for safety (adverse events, spirometry, labs), and two follow-up visits for efficacy (audiometric and vestibular). The primary endpoint was a reduction in cochleotoxic change, and the secondary endpoints was a reduction in tinnitus or vertigo severity.

[8] = Visit 3, end of tobramycin treatment
[9] = Visit 4, two weeks after end of tobramycin treatment
[10] = Visit 5, four weeks after end of tobramycin treatment

O=c1c2ccccc2[se]n1-c1ccccc1 [ebselen, 2-phenyl-1,2-benzisoselenazol-3(2H)-one]
change in plasma tobramycin levels (DDI) [1]: no significant change in plasma tobramycin levels
PFU/swab (nares) Day 1 (SARS-CoV-2; 15 mg/kg, 24 hours prior to nasal inoculation, saline 2.7E+04): 1.0E+04 PFU/swab
PFU/swab (nares) Day 3 (SARS-CoV-2; 15 mg/kg, 24 hours prior to nasal inoculation, saline 5.5E+02): 1.7E+02 PFU/swab
PFU/swab (nares) Day 2 (SARS-CoV-2; 15 mg/kg, 24 hours prior to nasal inoculation, saline 7.5E+03): 6.2E+03 PFU/swab
PFU/100 mg Cranial lung (SARS-CoV-2; 15 mg/kg, day 7, saline 4.9E+06): 2.3E+06 PFU/100 mg
PFU/100 mg Turbinates (SARS-CoV-2; 15 mg/kg, day 7, saline 5.5E+07): 3.6E+07 PFU/100 mg
PFU/100 mg Caudal lung (SARS-CoV-2; 15 mg/kg, day 7, saline 6.1E+06): 6.0E+06 PFU/100 mg
samples with lower counts compared to remdesivir (SARS-CoV-2; Table 2, six samples): 5 of 6
samples with lower counts compared to saline (SARS-CoV-2; Table 2, six samples): 6 of the 6
cell viability at the EC50 (Vero E6 cells): 100%
effect on cell viability (Vero E6 cells; ebselen: at ranges slightly higher than EC50): cell viability was decreased
CC50 (Vero E6 cells; listed as ebselen (DMSO)): > 1000 µM
CC50 (Vero E6 cells; listed as ebselen (EtOH)): > 100 µM
auditory function (hearing loss, word recognition and tinnitus) [2]: improvement in auditory function; also recorded: improve auditory function
respiratory status and progression to severe disease [3]: effective to improve in respiratory status and prevent progression to severe disease
protection against tobramycin-induced ototoxicity, auditory brainstem responses [4]: otoprotective and neuroprotective properties
in vitro inhibition activity against M^pro protease [5]: modest in vitro inhibition activity
time to clinical improvement (NIAID ordinal scale) [6]: effective to reduce time to at least a 2-grade improvement from baseline on the NIAID ordinal scale
Serum Creatinine Mean (SD) ([7]; Visit 2, on tobramycin and study treatment, normal 0.49-1.44): 0.80 (0.22) mg/dl
Blood Urea Nitrogen Mean (SD) ([7]; Visit 2, on tobramycin and study treatment, normal 5-22): 14.68 (4.80) mg/dl
Bilirubin (Total) ([7]; Visit 2): 0.41
Creatinine ([7]; Visit 2): 0.80
Magnesium ([7]; Visit 2): 2.21
Phosphorus ([7]; Visit 2): 3.61
Albumin ([7]; Visit 2): 3.87
Potassium ([7]; Visit 2): 4.22
Uric Acid ([7]; Visit 2): 4.89
Total Protein ([7]; Visit 2): 7.17
Calcium ([7]; Visit 2): 8.86
BUN ([7]; Visit 2): 14.68
AST/SGOT ([7]; Visit 2): 26.45
ALT/SGPT ([7]; Visit 2): 31.41
GGT ([7]; Visit 2): 25
Bicarbonate ([7]; Visit 2): 26.73
Triglyceride ([7]; Visit 2): 114.82
Alkaline Phosphatase ([7]; Visit 2): 93.41
Glucose ([7]; Visit 2): 120.95
Chloride ([7]; Visit 2): 100.68
Total Cholesterol ([7]; Visit 2): 139.68
Sodium ([7]; Visit 2): 136.36
LDH ([7]; Visit 2): 165.45
Serum Creatinine Mean (SD) [7, 8]: 0.78 (0.20) mg/dl
Blood Urea Nitrogen Mean (SD) [7, 8]: 15.11 (5.56) mg/dl
Bilirubin (Total) ([7]; Visit 3): 0.45
Creatinine ([7]; Visit 3): 0.78
Magnesium ([7]; Visit 3): 2.19
Phosphorus ([7]; Visit 3): 3.68
Albumin ([7]; Visit 3): 4.05
Potassium ([7]; Visit 3): 4.25
Uric Acid ([7]; Visit 3): 5
Total Protein ([7]; Visit 3): 7.29
Calcium ([7]; Visit 3): 9.03
BUN ([7]; Visit 3): 15.11
AST/SGOT ([7]; Visit 3): 27.58
ALT/SGPT ([7]; Visit 3): 35.63
GGT ([7]; Visit 3): 28.32
Bicarbonate ([7]; Visit 3): 27.42
Triglyceride ([7]; Visit 3): 114.84
Alkaline Phosphatase ([7]; Visit 3): 90.16
Glucose ([7]; Visit 3): 102.53
Chloride ([7]; Visit 3): 100.68
Total Cholesterol ([7]; Visit 3): 151.89
Sodium ([7]; Visit 3): 136.05
LDH ([7]; Visit 3): 166.37
Serum Creatinine Mean (SD) [7, 9]: 0.78 (0.19) mg/dl
Blood Urea Nitrogen Mean (SD) [7, 9]: 14.94 (6.66) mg/dl
Bilirubin (Total) ([7]; Visit 4): 0.49
Creatinine ([7]; Visit 4): 0.78
Magnesium ([7]; Visit 4): 2.06
Phosphorus ([7]; Visit 4): 3.84
Albumin ([7]; Visit 4): 4.08
Potassium ([7]; Visit 4): 4.16
Uric Acid ([7]; Visit 4): 5.63
Total Protein ([7]; Visit 4): 7.49
Calcium ([7]; Visit 4): 9.12
BUN ([7]; Visit 4): 14.94
AST/SGOT ([7]; Visit 4): 18.22
ALT/SGPT ([7]; Visit 4): 20.44
GGT ([7]; Visit 4): 23.11
Bicarbonate ([7]; Visit 4): 25.94
Triglyceride ([7]; Visit 4): 96.06
Alkaline Phosphatase ([7]; Visit 4): 104.50
Glucose ([7]; Visit 4): 132.56
Chloride ([7]; Visit 4): 100.94
Total Cholesterol ([7]; Visit 4): 134.78
Sodium ([7]; Visit 4): 135.17
LDH ([7]; Visit 4): 158.83
Serum Creatinine Mean (SD) [7, 10]: 0.81 (0.24) mg/dl
Blood Urea Nitrogen Mean (SD) [7, 10]: 13.45 (6.49) mg/dl
Bilirubin (Total) ([7]; Visit 5): 0.46
Creatinine ([7]; Visit 5): 0.81
Magnesium ([7]; Visit 5): 2.16
Phosphorus ([7]; Visit 5): 3.72
Albumin ([7]; Visit 5): 3.98
Potassium ([7]; Visit 5): 4.25
Uric Acid ([7]; Visit 5): 5.62
Total Protein ([7]; Visit 5): 7.38
Calcium ([7]; Visit 5): 9.11
BUN ([7]; Visit 5): 13.45
AST/SGOT ([7]; Visit 5): 26.60
ALT/SGPT ([7]; Visit 5): 22.45
GGT ([7]; Visit 5): 20.65
Bicarbonate ([7]; Visit 5): 26.15
Triglyceride ([7]; Visit 5): 89.95
Alkaline Phosphatase ([7]; Visit 5): 101.70
Glucose ([7]; Visit 5): 119.05
Chloride ([7]; Visit 5): 101.80
Total Cholesterol ([7]; Visit 5): 137.60
Sodium ([7]; Visit 5): 136.45
LDH ([7]; Visit 5): 213.58
nephrotoxicity ([7]; after IV tobramycin and SPI-1005 or placebo treatment): no significant nephrotoxicity; also recorded: lack of nephrotoxicity
tolerability ([7]; human, in vivo, iv): well tolerated
